Values joined by “and” are separate entries in the source; they are usually repeats but may differ in a detail not shown here. Identical values can stand only once. Values belong to the compound of their own block, whether it stands above or below them.
How the values were obtained:
[1] = Basic photochemical properties: one-photon photolysis / quantum yield determination by comparison with MNI-Glu; type: physicochemical; settings: for φ, quantum yield: Table 1, measured against MNI-Glu, filtered 280-400 nm Hg lamp; for quantum yield of photolysis: pH 7.4, compared with MNI-Glu; for photolyzed faster than MNI-Glu: pH 7.4, continuous-wave mercury arc lamp; for ε · φ: product of extinction coefficient and quantum yield, in M-1 cm-1 (unit assumed)
Procedure: The data imply that the quantum yield for release of L-glutamate from CDNI-Glu was about 0.5.
The extent of photolysis was measured either by HPLC (with inosine as the internal standard), or using the inherent changes in the UV-visible absorption spectra of the chromophores (FIGS. 4A-4D).
Quantum yield determination. The quantum yield for uncaging the new caged amino acids (CDNI-Glu, CNL-Glu, CNI-GABA and CNI-GABA) were measured by comparing the time of photolysis with the filtered (280-400 nm) output of a 500 W medium pressure Hg lamp of an equimolar solution (0.25 mM) of MNI-Glu and new cage. Inosine was used an inert internal standard. The path-length of the cuvette was 0.1 mm. The extent of reaction was monitored by HPLC as described previously (Huang, et al., 2005). […] Both methods gave very similar results.

[2] = test system: GABA receptors; experiment: 2-photon uncaging of caged GABA on hippocampal CA1 neurons in acutely isolated brain slices; type: cell-based, rat; settings: for concentration of caged compound required to evoke currents / laser power required to evoke currents: 2-photon uncaging; for laser power required to evoke currents: 720 nm; for block of GABA receptor by the cage before uncaging: CNI-GABA at high concentrations, CDNI-GABA in smaller amount
[3] = Two-photon (action) cross section; type: physicochemical; settings: for δ (relative), two-photon action cross section: MNI-Glu = 1
Procedure: (§1) What is the reason for continued focus on cage development? […] The first good caged glutamate was CNB-Glu (Weiboldt, et al., 1994). UV-laser excitation released glutamate quickly and with usable efficiency from this caged compound. […] For this reason, Bhc- and DMCNB-Glu were synthesized (Furuta et al., 1999; Ellis-Davies, 1999). […] However, when used for 2-photon photolysis MNI-Glu is applied at high concentrations (5-12 mM) that must be irradiated with powers at the very limit of tolerance for brain tissue (Matsuzaki, et al., 2004). For this reason, an even better caged glutamate is desired. An NI-Glu derivative was made containing a cross-linked benzophenone chromophore (“antenna-NI-Glu”, Papageorgiou, et al., 2004). When UV light (300-308 nm) was used to excite the benzophenone antenna, triplet energy transfer to the MNI cage released glutamate with high efficiency, which dropped considerably (ca. 2.5-fold) at 354 nm. […] In contrast, the inventor was able to uncage CDNI-Glu at 354 nm with very high efficiency (similar to the antenna-NI-Glu at 300 nm).
Given the power-squared law for 2-photon excitation (Denk, et al., 1990), this implies that the new chromophore is about 140-250 higher action cross-section for 2-photon uncaging, defined by Denk et al. (1990).
(§2) In order to evoke currents with CNI-GABA 20 mW for 2 ms and 10 mM must be used, whereas with CDNI-GABA only 4 mW and 0.5 mM are required. […] The effectiveness of CDNI-GABA is believed to be an important asset because high concentrations of the cages block GABA receptor before uncaging.
AMPA receptor currents evoked by 2-photon uncaging of MNI-Glu and CDNI-Glu on CA1 pyramidal neurons in acutely isolated brain slices were compared. An image of neuron from slice of hippocampus Post-natal day 15 (P15) rat brain was obtained. MNI-Glu and CNDI-Glu were applied at 10 mM and 2.5 mM to the same neuron, and glutamate was uncaged in the image area at 2 power levels according to methods previously described in Matsuzaki, et al., 2001 (compare FIGS. 5A & 5B, MNI-Glu currents shown on right hand side, CDNI-Glu currents shown on left hand side). The currents evoked by uncaging from CNDI-Glu were approximately 2-3× larger than MNI-Glu, implying 5-10× better reactivity for 2-photon uncaging.

[4] = test system: AMPA receptors; experiment: 2-photon uncaging of caged glutamate, AMPA receptor currents on CA1 pyramidal neurons in acutely isolated brain slices; type: cell-based, rat
[5] = Hydrolysis of solutions stored at 4° C.; type: physicochemical
Procedure: as §1

[6] = Solubility in physiological buffer; type: physicochemical; settings: for solubility (in words): physiological buffer / pH
Procedure: as §2
Advantageously, inventor had discovered that addition of the negative charge with CDNI-Glu solves both of these problems

[7] = laser flash photolysis (Gee, et al., 1994); cited from earlier work
[8] = test system: GABA receptors; settings: outside-out membrane patches (Jayaraman, et al., 1999); cited from earlier work
[9] = 1 GM=10^−50 cm^4s/photon; background; cited from earlier work
[10] = background; cited from earlier work

Structure (SMILES): NCCCC(=O)N1CCc2c(OCC(=O)O)c([N+](=O)[O-])cc([N+](=O)[O-])c21 [CDNI-GABA, (1-[4-Aminobutanoyl]-5,7-dinitroindolin-4-yloxy)acetic acid]
ε, molar extinction coefficient [1]: 8,600 M^−1 cm^−1
φ, quantum yield [1]: 0.6
quantum yield of photolysis [1]: 0.6
photolyzed faster than MNI-Glu [1]: 700%
ε · φ [1]: 5160
concentration of caged compound required to evoke currents [2]: 0.5 mM and 0.55 mM
laser power required to evoke currents [2]: 4 mW
block of GABA receptor by the cage before uncaging [2]: not blocking before uncaging
effectiveness relative to CNI-GABA ([2]; GABA receptors on CA1 neurons): 5-10 times
δ (relative), two-photon action cross section [3]: 5-10

Structure (SMILES): N[C@@H](CCC(=O)N1CCc2c(OCC(=O)O)c([N+](=O)[O-])cc([N+](=O)[O-])c21)C(=O)O [CDNI-Glu]
ε, molar extinction coefficient [1]: 8,600 M^−1 cm^−1
release of L-glutamate on photolysis ([1]; NMR analysis of the reaction mixture): essentially quantitatively
φ, quantum yield [1]: 0.5
quantum yield for release of L-glutamate ([1]; pH 7.4): about 0.5
quantum yield of photolysis [1]: about 0.5
ε · φ [1]: 4,300
currents evoked by 2-photon uncaging, times larger than MNI-Glu ([4]; 2.5 mM vs MNI-Glu 10 mM on the same neuron, P15 rat hippocampus slice, listed as CNDI-Glu): 2-3 times and 3-4 times
biological inertness of the cage toward AMPA receptors ([4]; before uncaging): biologically inert
rise- and decay-times of the evoked currents compared with MNI-Glu ([4]; same CA1 pyramidal neuron): similar
AMPA-receptor currents relative to MNI-Glu ([4]; sequential alternating application and uncaging on the same CA1 pyramidal neuron, same laser energy): five-times larger
action cross-section for 2-photon uncaging, higher than MNI-Glu ([3]; implied by power-squared law for 2-photon excitation): 140-250
δ (relative), two-photon action cross section [3]: 5-10
hydrolysis after 13 d [5]: 7%
solubility (in words) [6]: smooth solubilization of useful concentrations

Structure (SMILES): NCCCC(=O)OC(C(=O)O)c1ccccc1[N+](=O)[O-] (centres unmarked) [CNB-GABA]
half-time of neurotransmitter release [7]: about 30 microseconds
10-90% rise time of activated currents [8]: about 8 ms

Structure (SMILES): N[C@@H](CCC(=O)OC(C(=O)O)c1ccccc1[N+](=O)[O-])C(=O)O (some centres unmarked) [CNB-Glu]
2-photon cross section [9]: less than 0.001 GM
hydrolytic stability (in words) [10]: some what hydrolytically unstable

Structure (SMILES): NC(CCC(=O)N1CCc2c(OCC(=O)O)ccc([N+](=O)[O-])c21)C(=O)O (centres unmarked) [CNI-Glu, 4-carboxymethoxy-7-nitroinlinylglutamate]
ε, molar extinction coefficient [1]: 4,300 M^−1 cm^−1
fraction photolyzed during the time required for complete photolysis of CDNI-Glu ([1]; NMR analysis of a photolysis solution of 7, CNI-Glu and CDNI-Glu): about 10%
φ, quantum yield [1]: 0.1
quantum yield of photolysis [1]: about 0.1
ε · φ [1]: 430
δ (relative), two-photon action cross section [3]: 1

Structure (SMILES): COc1c([N+](=O)[O-])cc([N+](=O)[O-])c2c1CCN2C(=O)CCC(N)C(=O)O (centres unmarked) [MDNI-Glu, 4-methoxy-5,7-dinitroinlinylglutamate]
current signals from hippocampal neurons on 2-photon uncaging ([4]; 1 mM solutions): did not evoke any current signals
concentration of solutions that could be made [6]: ≥ 1000 µM
behaviour of buffer solution when frozen ([6]; buffer, frozen, then room temperature): precipitate in buffer when frozen

Now from value to compound, other results behind:

ε, molar extinction coefficient [1]: 4,300 M^−1 cm^−1
φ, quantum yield [1]: 0.1
quantum yield of photolysis [1]: 0.1
photolyzed faster than MNI-Glu [1]: about 10%
ε · φ [1]: 430
block of GABA receptor by the cage before uncaging [2]: partially blocks
δ (relative), two-photon action cross section [3]: 1
Structure (SMILES): NCCCC(=O)N1CCc2c(OCC(=O)O)ccc([N+](=O)[O-])c21 [CNI-GABA]
concentration of caged compound required to evoke currents [2]: 10 mM
laser power required to evoke currents [2]: 20 mW

solubility (in words) [6]: not soluble enough for uncaging
Structure (SMILES): COc1ccc([N+](=O)[O-])c2c1CCN2C(=O)CCCN [MNI-GABA]

ε, molar extinction coefficient [1]: 4,300 M^−1 cm^−1
φ, quantum yield [1]: 0.085
ε · φ [1]: 366
δ (relative), two-photon action cross section [3]: 1
hydrolysis after 2 d [5]: no detectable hydrolysis
hydrolysis after 13 d [5]: 1%
Structure (SMILES): COc1ccc([N+](=O)[O-])c2c1CCN2C(=O)CC[C@H](N)C(=O)O [MNI-Glu, Methoxynitroindoline-caged L-glutamate, reference compound]
